Test results as given in patent publication US12404232B2, “Compounds and compositions for intracellular delivery of therapeutic agents” (ModernaTX, Inc., priority 2015, dated 2025).

Assays:
[1] = Particle size and polydispersity index of nanoparticle compositions (Zetasizer Nano ZS); format: physicochemical; details: for PDI: nanoparticle composition 50:10:38.5:1.5 mol % (Table 1A)
Excerpt: Nanoparticle compositions may be characterized by a variety of methods. For example, microscopy (e.g., transmission electron microscopy or scanning electron microscopy) may be used to examine the morphology and size distribution of a nanoparticle composition. Dynamic light scattering or potentiometry (e.g., potentiometric titrations) may be used to measure zeta potentials. Dynamic light scattering may also be utilized to determine particle sizes. Instruments such as the Zetasizer Nano ZS (Malvern Instruments Ltd, Malvern, Worcestershire, UK) may also be used to measure multiple characteristics of a nanoparticle composition, such as particle size, polydispersity index, and zeta potential.
A Zetasizer Nano ZS (Malvern Instruments Ltd, Malvern, Worcestershire, UK) can be used to determine the particle size, the polydispersity index (PDI) and the zeta potential of the nanoparticle compositions in 1×PBS in determining particle size and 15 mM PBS in determining zeta potential.
(§1) Initial studies were performed to compare the delivery efficiency of nanoparticle compositions including various compounds according to Formula (I), (IA), (II), (IIa), (IIb), (IIc), (IId) or (IIe). The cationic lipid MC3 is a current standard in the art. Accordingly, the standard MC3 formulation including about 50 mol % MC3, about 10 mol % DSPC, about 38.5 mol % cholesterol, and about 1.5 mol % PEG-DMG was used as a basis for this study. Nanoparticle compositions including DSPC as a phospholipid, cholesterol as a structural lipid, PEG-DMG as a PEG lipid, an RNA, and a compound according to Formula (I), (IA), (II), (IIa), (IIb), (IIc), (IId) or (IIe) selected from Compounds 1-159, 168-170, and 173-175 were prepared according to or via methods similar to those described in Examples 1 and 2. The ratios of the lipids were 50:10:38.5:1.5 mol % for the lipid according to Formula (I), (IA), (II), (IIa), (IIb), (IIc), (IId) or (IIe):DSPC:cholesterol:PEG-DMG. The RNA used was an mRNA encoding G5 luciferase (Luc) or G5 hEPO. Tables 1A-1B summarize the content and characteristics of the formulations. […]

[2] = tested on: mice; experiment: Luc expression (total flux) after intramuscular administration; format: in vivo; details: i.m., Luc, 6 h
[3] = tested on: mice; experiment: hEPO expression in mice after intravenous administration; format: in vivo
Description: Sample formulations of nanoparticle compositions including different lipids are generally first evaluated according to Luc expression in vivo. The activity of several such compositions was further evaluated using an mRNA encoding hEPO. Nanoparticle compositions including Compounds 6, 18, 25, 30, 108-112, 60, and 122, or MC3 were prepared according to Example 2.
(§2) The expression of hEPO and cytokine induction in mice intravenously administered a nanoparticle composition at a dose of 0.5 mpk were measured at 3, 6, and 24 hours. […] The expression of hEPO in mice intramuscularly administered a nanoparticle composition from Table 1B at a dose of 0.01 mpk were measured at 3, 6, and 24 hours. […] (see also FIG. 9.)
Table 12 compares the nanoparticle compositions including compounds according to Formula (I), (IA), (II), (IIa), (IIb), (IIc), (IId) or (IIe) to the compositions including MC3 on the basis of expression and flux levels. […] Thus, these lipids may be useful in nanoparticle composition therapeutics. […]

[4] = Encapsulation of RNA by the nanoparticle composition (QUANT-IT RIBOGREEN RNA assay); format: physicochemical
Excerpt: The efficiency of encapsulation of a therapeutic and/or prophylactic describes the amount of therapeutic and/or prophylactic that is encapsulated or otherwise associated with a nanoparticle composition after preparation, relative to the initial amount provided. The encapsulation efficiency is desirably high (e.g., close to 100%). The encapsulation efficiency may be measured, for example, by comparing the amount of therapeutic and/or prophylactic in a solution containing the nanoparticle composition before and after breaking up the nanoparticle composition with one or more organic solvents or detergents. Fluorescence may be used to measure the amount of free therapeutic and/or prophylactic (e.g., RNA) in a solution. For the nanoparticle compositions described herein, the encapsulation efficiency of a therapeutic and/or prophylactic may be at least 50%, for example 50%, 55%, 60%, 65%, 70%, 75%, 80%, 85%, 90%, 91%, 92%, 93%, 94%, 95%, 96%, 97%, 98%, 99%, or 100%. In some embodiments, the encapsulation efficiency may be at least 80%. In certain embodiments, the encapsulation efficiency may be at least 90%.
For nanoparticle compositions including an RNA, a QUANT-IT™ RIBOGREEN® RNA assay (Invitrogen Corporation Carlsbad, CA) can be used to evaluate the encapsulation of an RNA by the nanoparticle composition. The samples are diluted to a concentration of approximately […] in a TE buffer solution (10 mM Tris-HCl, 1 mM EDTA, pH 7.5). 50 μL of the diluted samples are transferred to a polystyrene 96 well plate and either 50 μL of TE buffer or 50 μL of a 2% Triton X-100 solution is added to the wells. The plate is incubated at a temperature of 37° C. for 15 minutes. The RIBOGREEN® reagent is diluted 1:100 in TE buffer, and 100 μL of this solution is added to each well. The fluorescence intensity can be measured using a fluorescence plate reader (Wallac Victor 1420 Multilablel Counter; Perkin Elmer, Waltham, MA) at an excitation wavelength of, for example, about 480 nm and an emission wavelength of, for example, about 520 nm. The fluorescence values of the reagent blank are subtracted from that of each of the samples and the percentage of free RNA is determined by dividing the fluorescence intensity of the intact sample (without addition of Triton X-100) by the fluorescence value of the disrupted sample (caused by the addition of Triton X-100).
as §1

[5] = tested on: mice; experiment: Cytokine induction (IL-6, IP-10) in mice after intravenous administration; format: in vivo; parameters: IL-6 / IP-10: unit not given here; details: 0.5 mpk; for IL-6 / IP-10: 6 hours
Excerpt: The introduction of foreign material into a mammalian body induces an innate immune response that promotes cytokine production. Such immune responses to, for example, nanoparticle compositions including therapeutic and/or prophylactics, are undesirable. The induction of certain cytokines is thus measured to evaluate the […] of nanoparticle compositions. The concentrations of various cytokines in mice upon intravenous administration of nanoparticle compositions presented in Table 1A at a dosage of 0.5 mpk was measured at 6 hours. The standard MC3 formulation and a PBS control were also tested. As is evident in Table 7, IL-6 induction was highest for compositions including Compounds 1, 3, 9, 19, and 26, while IP-10 induction was highest for compositions including Compounds 3, 4, 7, 20, and 26. IL-6 induction was lowest for compositions including Compounds 4, 11, 12, and 28. IP-10 induction was lowest for compositions including Compounds 10, 11, 12, 13, 15, 17, and 18.
as §2

[6] = tested on: mice; experiment: Luc expression (bioluminescence, total flux) after intravenous administration to mice; format: in vivo; details: Luc total flux (Table 3D)
Description: In order to monitor how effectively various nanoparticle compositions deliver therapeutic and/or prophylactics to targeted cells, different nanoparticle compositions including a particular therapeutic and/or prophylactic (for example, a modified or naturally occurring RNA such as an mRNA) are prepared and administered to rodent populations. Mice are intravenously, intramuscularly, intraarterially, or intratumorally administered a single dose including a nanoparticle composition with a formulation such as those provided in Example 3. In some instances, mice may be made to inhale doses. Dose sizes may range from 0.001 mg/kg to 10 mg/kg, where 10 mg/kg describes a dose including 10 mg of a therapeutic and/or prophylactic in a nanoparticle composition for each 1 kg of body mass of the mouse. A control composition including PBS may also be employed.
Upon administration of nanoparticle compositions to mice, dose delivery profiles, dose responses, and toxicity of particular formulations and doses thereof can be measured by enzyme-linked immunosorbent assays (ELISA), bioluminescent imaging, or other methods. For nanoparticle compositions including mRNA, time courses of protein expression can also be evaluated. Samples collected from the rodents for evaluation may include blood, sera, and tissue (for example, muscle tissue from the site of an intramuscular injection and internal tissue); sample collection may involve sacrifice of the animals.
The efficacy of the nanoparticle compositions presented in Table 1A was evaluated with a bioluminescence study. Formulations were administered intravenously to mice (n=6) at a dosage of 0.5 mg/kg (mpk) and bioluminescence measured at 3, 6, and 24 hour time points. The standard MC3 formulation and, in some instances, a control (e.g., a PBS control) were evaluated for comparison. […] In general, flux decreased as time progressed to less than 10% of the initial flux.
The total flux (measured by area under the curve, AUC) induced by administration of a formulation including a given lipid relative to that induced by administration of a formulation including MC3 was also measured for several lipids.
The tolerability and efficacy of nanoparticle compositions to non-human primates was also investigated using sample formulations including Compounds 18, 25, 26, and 48 and MC3 to determine if these compounds are differentiated in terms of protein expression. The formulations were prepared according to the standard MC3 formulation described above and included an hEPO mRNA. Table 30 includes details of the compositions tested, while Table 31 summarizes the relative expression of Luc and hEPO mRNA in mice and rats. Expression was measured 6 hours after administration.

[7] = nanoparticle composition lipid:DSPC:cholesterol:PEG-DMG 50:10:38.5:1.5 mol %, mRNA encoding Luc or hEPO (Table 1A)
[8] = nanoparticle composition 50:10:38.5:1.5 mol % (Table 1A)

| Compound | PDI [1] | Size (nm) [1, 7] | i.m. Lipid/MC3 0.01 mpk, Luc, 6h [2] | EE (%) [4, 8] | also measured |
| --- | --- | --- | --- | --- | --- |
| CCCCCCCCCOC(=O)CCCCCCCN(CCCCCCCC(=O)OC(CCCCCCCC)CCCCCCCC)CCCN/C(=C/[N+](=O)[O-])NC [Compound 170, Heptadecan-9-yl (E)-8-((3-((1-(methylamino)-2-nitrovinyl)amino)propyl)(8-(nonyloxy)-8-oxooctyl)amino)octanoate] | 0.12 | 71.7 nm | 5.3 | – | – |
| CCCCC/C=C\C/C=C\CCCCCCCCN(CCO)CCCCCCCC(=O)OC(CCCCCCCC)CCCCCCCC [Compound 6, Heptadecan-9-yl 8-((2-hydroxyethyl)((9Z,12Z)-octadeca-9,12-dien-1-yl)amino)octanoate] | – | – | – | – | Size (nm) ([1]; hEPO mRNA, lipid:DSPC:Chol:PEG-DMG (50:10:38.5:1.5) (Table 10)): 70.5 nm; hEPO concentrations compared with MC3 formulations at each time point ([3]; 0.5 mpk, 3, 6 and 24 hours): higher hEPO concentrations than MC3 formulations; hEPO expression (pg/ml) 3h ([3]; 0.5 mpk, 3 h): 2.31e+06 pg/mL; hEPO expression (pg/ml) 6 h ([3]; 0.5 mpk, 6 h): 3.17e+06 pg/mL; hEPO expression (pg/ml) 24 h ([3]; 0.5 mpk, 24 h): 1.11e+06 pg/mL; EE (%) ([4]; hEPO mRNA, (50:10:38.5:1.5) (Table 10)): 97.84%; IL-6 [5]: 136.18; IP-10 [5]: 316.01; Cytokine expression (pg/ml) IL-6 (6 h) ([5]; hEPO mRNA, 6 h): 10.15 pg/mL; Cytokine expression (pg/ml) IP-10 (6 h) ([5]; hEPO mRNA, 6 h): 116.66 pg/mL |
| CCCCCCCCCOC(=O)CCCCCCCN(CCCCCCCC(=O)OC(CCCCCCCC)CCCCCCCC)CCCN/C(=N/C#N)N(C)C [Compound 168, Heptadecan-9-yl (Z)-8-((3-(2-cyano-3,3-dimethylguanidino)propyl)(8-(nonyloxy)-8-oxooctyl)amino)octanoate] | 0.1 | 80.7 nm | – | 94.35% | – |
| CCCCCCCCCOC(=O)CCCCCCCN(CCO)CCCCCCC(=O)OCC(CCCCCCCC)CCCCCCCC [Compound 143, Nonyl 8-((2-hydroxyethyl)(7-((2-octyldecyl)oxy)-7-oxoheptyl)amino)octanoate] | 0.19 | 93.3 nm | – | 96.4% | IL-6 [5]: 6.245; IP-10 [5]: 209.63 |
| CCCCCCCCCOC(=O)CCCCCCCN(CCCCCCCC(=O)OC(CCCCCCCC)CCCCCCCC)CCCNS(C)(=O)=O [Compound 109, Heptadecan-9-yl 8-((3-(methylsulfonamido)propyl)(8-(nonyloxy)-8-oxooctyl)amino)octanoate] | – | – | 3.6 | – | – |
| CCCCCCCCCOC(=O)CCCCCCCN(CCCCCCCC(=O)OC(CCCCCCCC)CCCCCCCC)C(C)CO (stereo not drawn) [Compound 157, Heptadecan-9-yl 8-((1-hydroxypropan-2-yl)(8-(nonyloxy)-8-oxooctyl)amino)octanoate] | 0.096 | 69.6 nm | – | 96.43% | AUC (p/s*h) [6]: 2.481E+011 p/s*h |
| CCCCCCCCC(CCCCCCCC)OC(=O)CCCCCCCN(CCO)CCCC(=O)OC(CCCCC)CCCCCCCC (stereo not drawn) [Compound 71, Heptadecan-9-yl 8-((2-hydroxyethyl)(4-oxo-4-(tetradecan-6-yloxy)butyl)amino)octanoate] | 0.11 | 60.1 nm | – | 96.1% | – |
| CCCCCCCCCOC(=O)CCCCCCCN(CCCCCCCC(=O)OC(CCCCCCCC)CCCCCCCC)CCCN(C)S(C)(=O)=O [Compound 173, Heptadecan-9-yl 8-((3-(N-methylmethylsulfonamido)propyl)(8-(nonyloxy)-8-oxooctyl)amino)octanoate] | – | – | 0.6 | – | – |
